According to US11214803B2, “Modulators of YAP1 expression” (Ionis Pharmaceuticals, Inc., priority 2019, dated 2022):
Strand notation (5' to 3'): a small letter for the sugar, then the base; units joined by * are phosphorothioate-linked, units joined directly phosphodiester-linked; [ ] holds rarer units or linkages, { } end groups; capitals alone tell only the bases. k = constrained ethyl (cEt); [5mC] = 5-methylcytosine; d = 2'-deoxy (DNA)

What follows are substances tested on Yap1 mRNA (assay: Antisense inhibition of human Yap1 in A-431 cells by cEt gapmers, single dose (Example 3, RTS36584)). Settings: Table 8; A-431 cells, 5,000 cells per well, free uptake, 2,000 nM, approximately 48 hours; RTS36584; normalized to RIBOGREEN; Yap1 mRNA relative to untreated control cells.
Format: cell-based
In short: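 Values are % untreated control: Yap1 mRNA by quantitative RT-PCR (RTS36584), normalized to total RNA by RiboGreen. Before RNA isolation, 5,000 A-431 cells per well were exposed ~48 h to 2,000 nM 16-mer cEt gapmer, delivered without transfection reagent.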
With “958413 (antisense k[5mC]*kT*kA*dG*dT*dA*dA*dT*d[5mC]*dT*dT*dA*d[5mC]*kT*kG*kG) [Compound 958413]” the “YAP1 (% UTC)” value was 80 % UTC. In the case of “958383 (antisense k[5mC]*kT*kT*d[5mC]*d[5mC]*dT*d[5mC]*dT*dG*d[5mC]*dG*d[5mC]*dG*k[5mC]*k[5mC]*k[5mC]) [Compound 958383]”, the “YAP1 (% UTC)” value is reported as 96 % UTC.

Same assay, conditions: Table 9; A-431 cells, 5,000 cells per well, free uptake, 2,000 nM, approximately 48 hours; RTS36584; normalized to RIBOGREEN; Yap1 mRNA relative to untreated control cells
For “958751 (antisense kT*k[5mC]*kA*dA*dT*dG*d[5mC]*dA*dG*dG*dA*dT*dT*k[5mC]*k[5mC]*kA) [Compound 958751]”, the “YAP1 (% UTC)” value was 30 % UTC. “958516 (k[5mC]*kT*kG*d[5mC]*dA*dG*dA*d[5mC]*dT*dG*d[5mC]*d[5mC]*d[5mC]*k[5mC]*kA*kA; antisense) [Compound 958516]” was tested, and the “YAP1 (% UTC)” value was 38 % UTC. For “958701 (antisense kT*kT*kA*dA*dA*d[5mC]*dT*dA*dG*dG*d[5mC]*dA*d[5mC]*kA*kT*kT) [Compound 958701]”, the “YAP1 (% UTC)” value was 98 % UTC. With “958666 (kG*kA*kA*dA*dA*dG*dG*dG*d[5mC]*dA*dA*dT*d[5mC]*kA*kT*kA; antisense) [Compound 958666]” the “YAP1 (% UTC)” value was 52 % UTC.

Same assay, conditions: Table 10; A-431 cells, 5,000 cells per well, free uptake, 2,000 nM oligonucleotide, approx. 48 hours; primer probe set RTS36584; Yap1 mRNA normalized to RIBOGREEN, percent of untreated control
With “958562 (k[5mC]*kA*kT*dT*dG*dA*dA*dA*dG*dA*d[5mC]*d[5mC]*d[5mC]*kT*kT*kA; antisense) [Compound 958562]” the “YAP1 (% UTC)” value was 6 % UTC. “958442 (antisense kG*kG*kA*dG*dA*dA*dG*d[5mC]*dG*dG*d[5mC]*dG*dA*k[5mC]*kG*kG) [Compound 958442]” was tested, and the “YAP1 (% UTC)” value was 21 % UTC. With “958597 (k[5mC]*k[5mC]*k[5mC]*dA*dA*dT*dA*d[5mC]*dA*dA*d[5mC]*d[5mC]*dA*kA*kG*kA; antisense) [Compound 958597]” the “YAP1 (% UTC)” value was 6 % UTC.

Same assay, conditions: Table 11; A-431 cells, 5,000 cells per well, free uptake, 2,000 nM oligonucleotide, approx. 48 hours; primer probe set RTS36584; Yap1 mRNA normalized to RIBOGREEN, percent of untreated control
For “958603 (kT*kG*kG*dT*dA*dT*dG*dA*dA*dT*dT*d[5mC]*dT*kG*kA*kA; antisense) [Compound 958603]”, the “YAP1 (% UTC)” value was 3 % UTC. With “958578 (k[5mC]*kT*kT*dA*dA*dT*d[5mC]*dT*dG*dT*dG*dG*d[5mC]*kT*kA*k[5mC]; antisense) [Compound 958578]” the “YAP1 (% UTC)” value was 4 % UTC. For “958593 (kG*kG*kT*d[5mC]*dA*dG*dT*dA*d[5mC]*dA*dG*dA*dG*kG*kG*k[5mC]; antisense) [Compound 958593]”, the “YAP1 (% UTC)” value was 7 % UTC.

Same assay, conditions: Table 12; A-431 cells, 5,000 cells per well, free uptake, 2,000 nM modified oligonucleotide, approx. 48 hours; RTS36584; normalized to RIBOGREEN; Yap1 mRNA relative to untreated control cells
“958544 (kG*k[5mC]*kT*dA*dA*dA*dT*dT*d[5mC]*dA*dA*d[5mC]*dT*kA*k[5mC]*k[5mC]; antisense) [Compound 958544]” was tested, and the “YAP1 (% UTC)” value was 8 % UTC. With “958799 (antisense kA*kT*kT*dA*d[5mC]*dT*d[5mC]*dA*dA*dT*d[5mC]*dA*dT*kG*kG*kT) [Compound 958799]” the “YAP1 (% UTC)” value was 2 % UTC. For “958729 (antisense kG*kT*k[5mC]*dA*dG*dT*dT*dA*dT*d[5mC]*d[5mC]*dT*dA*kT*k[5mC]*kT) [Compound 958729]”, the “YAP1 (% UTC)” value was 4 % UTC. In the case of “958604 (kA*k[5mC]*kG*d[5mC]*dT*dA*dG*dA*dA*dA*dA*dG*dT*kG*kT*kT; antisense) [Compound 958604]”, the “YAP1 (% UTC)” value is reported as 94 % UTC.

Same assay, conditions: Table 13; A-431 cells, 5,000 cells per well, free uptake, 2,000 nM modified oligonucleotide, approx. 48 hours; RTS36584; normalized to RIBOGREEN; Yap1 mRNA relative to untreated control cells
“958750 (antisense kT*kG*kT*dA*dA*dG*dA*dG*dG*dA*dG*dA*d[5mC]*k[5mC]*kA*k[5mC]) [Compound 958750]” was tested, and the “YAP1 (% UTC)” value was 28 % UTC. For “958720 (antisense kG*kT*k[5mC]*dT*dA*d[5mC]*dT*dA*dG*dA*dG*d[5mC]*dT*kG*k[5mC]*k[5mC]) [Compound 958720]”, the “YAP1 (% UTC)” value was 12 % UTC. For “958715 (antisense kG*kT*kA*dA*dT*dA*dG*dG*dA*dG*dG*dT*dA*kA*kG*kA) [Compound 958715]”, the “YAP1 (% UTC)” value was 48 % UTC. “958515 (k[5mC]*k[5mC]*k[5mC]*d[5mC]*dA*dA*d[5mC]*d[5mC]*dA*dG*dA*dT*dT*kT*kA*kA; antisense) [Compound 958515]” was tested, and the “YAP1 (% UTC)” value was 28 % UTC. “958520 (k[5mC]*kT*kA*d[5mC]*d[5mC]*dG*dT*dA*dT*dG*d[5mC]*d[5mC]*d[5mC]*kA*kG*kA; antisense) [Compound 958520]” was tested, and the “YAP1 (% UTC)” value was 27 % UTC. For “958765 (antisense kG*kT*kA*d[5mC]*dA*dG*dG*dA*dG*dA*dG*dA*dT*kT*kG*k[5mC]) [Compound 958765]”, the “YAP1 (% UTC)” value was 37 % UTC. For “958810 (kT*kT*kA*dT*dA*dT*dA*d[5mC]*dG*dG*dG*dA*dA*kA*kA*kT; antisense) [Compound 958810]”, the “YAP1 (% UTC)” value was 47 % UTC. “958470 (antisense kT*kA*kG*dA*dT*d[5mC]*d[5mC]*dT*dT*d[5mC]*dA*d[5mC]*dA*kG*kA*kT) [Compound 958470]” was tested, and the “YAP1 (% UTC)” value was 18 % UTC. For “958450 (antisense kG*kG*kT*d[5mC]*dG*d[5mC]*d[5mC]*dG*d[5mC]*dG*dG*dG*dT*kG*k[5mC]*k[5mC]) [Compound 958450]”, the “YAP1 (% UTC)” value was 59 % UTC.

Same assay, conditions: Table 26; Yap1 mRNA by 3-10-3 cEt gapmers targeting SEQ ID NO.: 1, and 2; percent of untreated control
“1075468 (antisense k[5mC]*kA*k[5mC]*d[5mC]*dA*dA*dT*dA*d[5mC]*dT*dG*dA*dG*kT*kA*kT) [compound 1075468]” was tested, and the “YAP1 (% UTC)” value was 91 % UTC. For “1076332 (antisense kT*kA*kT*dA*dA*dG*dG*dA*dA*dT*dG*dG*d[5mC]*kA*kA*k[5mC]) [compound 1076332]”, the “YAP1 (% UTC)” value was 107 % UTC. In the case of “1075660 (antisense k[5mC]*kA*kA*dA*dG*dT*dA*dA*dA*dA*dA*dA*d[5mC]*kG*kG*kT) [compound 1075660]”, the “YAP1 (% UTC)” value is reported as 72 % UTC.

Same assay, conditions: Table 27; Yap1 mRNA by 3-10-3 cEt gapmers targeting SEQ ID NO.: 1, and 2; percent of untreated control
For “1074381 (kA*kG*kT*d[5mC]*dT*dG*dG*dG*dA*dA*dA*d[5mC]*dG*kG*kT*kT; antisense) [compound 1074381]”, the “YAP1 (% UTC)” value was 16 % UTC. With “1076013 (kG*kT*kT*dT*dA*dA*dT*dA*d[5mC]*d[5mC]*dT*d[5mC]*dT*kG*kA*k[5mC]; antisense) [compound 1076013]” the “YAP1 (% UTC)” value was 76 % UTC. In the case of “1074669 (antisense kA*kT*k[5mC]*d[5mC]*d[5mC]*dA*dA*d[5mC]*dA*dA*d[5mC]*dA*dT*kG*k[5mC]*kT) [compound 1074669]”, the “YAP1 (% UTC)” value is reported as 13 % UTC.

Same assay, conditions: Table 28; Yap1 mRNA as percent of untreated control; 3-10-3 cEt gapmers targeting SEQ ID NO.: 1, and 2
For “1075598 (antisense kA*kA*kT*dT*dA*dA*d[5mC]*dA*dT*dT*dT*dG*d[5mC]*k[5mC]*k[5mC]*kG) [compound 1075598]”, the “YAP1 (% UTC)” value was 62 % UTC.

Same assay, conditions: Table 29; Yap1 mRNA as percent of untreated control; 3-10-3 cEt gapmers targeting SEQ ID NO.: 1, and 2
“1076303 (k[5mC]*kT*kA*dA*dT*dA*dA*dG*d[5mC]*d[5mC]*dT*d[5mC]*dA*k[5mC]*k[5mC]*kT; antisense) [compound 1076303]” was tested, and the “YAP1 (% UTC)” value was 34 % UTC. In the case of “1074159 (k[5mC]*kG*kA*dG*d[5mC]*dG*dA*dG*dG*dG*d[5mC]*dT*dA*k[5mC]*kG*k[5mC]; antisense) [compound 1074159]”, the “YAP1 (% UTC)” value is reported as 77 % UTC. With “1076431 (k[5mC]*kA*k[5mC]*d[5mC]*dA*dA*dT*dA*dG*dA*dA*d[5mC]*dA*kT*kA*kT; antisense) [compound 1076431]” the “YAP1 (% UTC)” value was 31 % UTC. In the case of “1075343 (antisense kA*kA*k[5mC]*dT*dA*dA*dA*dA*dG*dG*dG*dA*dG*kT*kA*kG) [compound 1075343]”, the “YAP1 (% UTC)” value is reported as 89 % UTC.

Same assay, conditions: Table 34; Yap1 mRNA as percent of untreated control; 3-10-3 cEt gapmers targeting SEQ ID NO: 1 and 2; single dose
For “1076564 (kT*kA*kA*dA*dG*dT*dA*dA*dT*dG*d[5mC]*dT*dA*k[5mC]*kA*kG; antisense) [compound 1076564]”, the “YAP1 (% UTC)” value was 77 % UTC. With “1075828 (kT*kT*kA*dG*dA*dA*dT*dA*dG*dT*dT*d[5mC]*dT*kA*k[5mC]*k[5mC]; antisense) [compound 1075828]” the “YAP1 (% UTC)” value was 59 % UTC. “1074228 (antisense kG*kA*k[5mC]*dT*dG*dT*d[5mC]*dG*dA*dA*dG*dA*dT*kG*k[5mC]*kT) [compound 1074228]” was tested, and the “YAP1 (% UTC)” value was 17 % UTC. In the case of “1074516 (kT*kT*kA*dA*d[5mC]*dT*dG*dG*dA*dA*dA*dG*d[5mC]*kA*kG*kG; antisense) [compound 1074516]”, the “YAP1 (% UTC)” value is reported as 22 % UTC. With “1075156 (kA*kT*kT*dA*dT*dA*dT*dG*dA*d[5mC]*dT*d[5mC]*dT*kG*k[5mC]*kT; antisense) [compound 1075156]” the “YAP1 (% UTC)” value was 22 % UTC.

Same assay, conditions: Table 35; Yap1 mRNA as percent of untreated control; 3-10-3 cEt gapmers targeting SEQ ID NO: 1 and 2; single dose
For “1075957 (k[5mC]*kT*kA*dT*dA*dA*dA*dG*d[5mC]*dA*dA*dT*dG*k[5mC]*kG*kA; antisense) [compound 1075957]”, the “YAP1 (% UTC)” value was 28 % UTC. “1074677 (antisense k[5mC]*kT*kA*d[5mC]*dT*dG*dG*d[5mC]*dA*dA*dA*dT*dT*kA*kT*kA) [compound 1074677]” was tested, and the “YAP1 (% UTC)” value was 22 % UTC. With “1075925 (antisense kA*kA*k[5mC]*d[5mC]*dT*dA*dT*dA*dT*dT*dA*dT*dT*kT*kG*k[5mC]) [compound 1075925]” the “YAP1 (% UTC)” value was 28 % UTC. “1075509 (k[5mC]*kA*kT*dA*dA*dT*d[5mC]*d[5mC]*d[5mC]*dT*dG*dA*d[5mC]*kT*kT*kG; antisense) [compound 1075509]” was tested, and the “YAP1 (% UTC)” value was 81 % UTC. With “1075829 (kA*k[5mC]*kT*d[5mC]*dA*dA*dT*dA*dG*dA*dT*d[5mC]*dA*kT*kT*kG; antisense) [compound 1075829]” the “YAP1 (% UTC)” value was 41 % UTC.
